ChEMBL document CHEMBL1201862, “PubChem BioAssay data set” (2004)
Active and inactive are the calls of the source.

What was measured:
[1] = target: 1-phosphatidylinositol 4,5-bisphosphate phosphodiesterase gamma-1 (Homo sapiens, UniProt P19174); experiment: Counterscreen for inhibitors of phospholipase C isozymes (PLC-B3): Fluorescence-based biochemical high throughput dose response assay to identify inhibitors of phospholipase C isozymes (PLC-gamma1).
[2] = target: 1-phosphatidylinositol 4,5-bisphosphate phosphodiesterase beta-3 (Homo sapiens, UniProt Q01970); experiment: Fluorescence-based biochemical high throughput dose response assay to identify inhibitors of phospholipase C isozymes (PLC-B3).
[3] = cells
[4] = target: T1, Oxysterols receptor LXR-beta (Homo sapiens, UniProt P55055); type: functional, cell-based;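 further: Cell-based luminescence dose-response assay of agonist activity at LXR, run as a confirmatory counterscreen to a daf-12 agonist screen; HEK293 cells with Gal4-LXR fusion and GAL4-driven luciferase reporter; agonist potency from rising luciferase signal of a Gal4-LXR reporter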
T1 sequence (P55055 whole entry): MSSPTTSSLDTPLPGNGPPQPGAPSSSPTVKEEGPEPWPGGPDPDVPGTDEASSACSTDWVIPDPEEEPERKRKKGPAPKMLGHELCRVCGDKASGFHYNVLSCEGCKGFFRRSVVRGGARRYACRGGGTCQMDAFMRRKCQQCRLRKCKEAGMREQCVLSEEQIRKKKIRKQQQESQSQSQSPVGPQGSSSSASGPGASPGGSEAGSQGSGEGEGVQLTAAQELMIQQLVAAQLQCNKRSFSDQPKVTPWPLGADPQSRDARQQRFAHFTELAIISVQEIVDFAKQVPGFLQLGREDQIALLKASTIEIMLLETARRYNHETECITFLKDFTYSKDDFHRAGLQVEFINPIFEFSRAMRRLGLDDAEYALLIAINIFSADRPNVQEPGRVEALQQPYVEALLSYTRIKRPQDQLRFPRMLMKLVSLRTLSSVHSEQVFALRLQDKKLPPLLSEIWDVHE

[5] = target: NAD-dependent protein deacylase sirtuin-5, mitochondrial (Homo sapiens, UniProt Q9NXA8); experiment: SIRT5 deacylase inhibitors, dose response, biochemical, fluorescence imaging, cherry-pick, set 6 (AID 720597)
[6] = BHK-21 cell cytotoxicity, cytotoxicity control for flavivirus guanylyltransferase probe project, secondary screen (AID 624078); type: functional
[7] = HEK293T cell cytotoxicity, dose response, cytotoxicity control, luminescence plate reader, powder samples, set 4 (AID 651863); type: functional, cell-based; settings: HEK293
[8] = ADAM10 inhibitors, peptide cleavage, dose response, biochemical, QFRET (AID 743254);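 further: ADAM10 enzyme with the DM2 quenched FRET peptide as substrate; EDANS fluorescence gain as the protease cuts the substrate; inhibitor potency against ADAM10 proteolytic activity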
[9] = Luminescence Cell-Based Dose Retest to Confirm Inhibitors of Cancer Stem Cells. [Related pubchem assays (depositor defined):AID2717, AID2721]; type: functional; settings: Homo sapiens
[10] = target: Disintegrin and metalloproteinase domain-containing protein 17 (Homo sapiens, UniProt P78536); experiment: ADAM17 protease inhibitors, dose response, counter-screen for ADAM10 exosite inhibitor project, biochemical, quenched FRET substrate (AID 743253)
[11] = PAX2 cell-based inhibition, dose response, selectivity assay for PAX8 inhibitor project, plate reader, dry powder samples (AID 743048); type: functional;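 further: HEK293 cells carrying a WT1 promoter luciferase reporter driven by expressed Pax2; potency is for inhibition of Pax2 driven reporter signal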
[12] = NIH:OVCAR-3 ovarian cancer cell cytotoxicity, dose response, PAX8 inhibitor project, plate reader, dry powder samples (AID 743044); type: functional, cell-based
[13] = cytotoxicity in OV-90 ovarian cancer cells, dose response, PAX8 inhibitor project, cell-based, plate reader, dry powder, SA8 (AID 743149); type: functional
[14] = IOSE-T80 ovarian epithelial cell cytotoxicity, dose response, cytotoxicity control for PAX8 inhibitor project, plate reader, dry powder samples (AID 743045); type: functional, cell-based
[15] = cytotoxicity in OVCAR4 cells, dose response, cytotoxicity control for PAX8 inhibitor project, cell-based, plate reader, dry powder, SA11 (AID 743150); type: functional; settings: OVCAR-4
[16] = cytotoxicity in COV362 ovarian cancer cells, dose response, cytotoxicity control for PAX8 inhibitor project, cell-based, plate reader, dry powder, SA12 (AID 743144); type: functional
[17] = cytotoxicity in COV434 cells, dose response, cytotoxicity control for PAX8 inhibitor project, cell-based, plate reader, dry powder, SA7 (AID 743145); type: functional
[18] = IGROV1 ovarian cancer cell cytotoxicity, dose response, PAX8 inhibitor project, plate reader, dry powder samples (AID 743043); type: functional, cell-based; settings: IGROV-1
[19] = cytotoxicity dependent on PAX8, dose response, cell-based, plate reader, dry powder (AID 743049); type: functional
[20] = A2780 ovarian cancer cell cytotoxicity, dose response, cytotoxicity control, plate reader, dry powder samples (AID 743046); type: functional, cell-based
[21] = inhibitors of non-replicating M. tuberculosis, dose response, luciferase, dry powder (AID 651619); type: functional; settings: Mycobacterium tuberculosis
[22] = inhibitors of non-replicating M. tuberculosis, dose response, luciferase, dry powder (AID 651620); type: functional; settings: Mycobacterium tuberculosis
[23] = target: fMet-Leu-Phe receptor (Homo sapiens, UniProt P21462); experiment: FPR ligands, dose response (AID 519); type: functional
Chain of fMet-Leu-Phe receptor (P21462 whole entry): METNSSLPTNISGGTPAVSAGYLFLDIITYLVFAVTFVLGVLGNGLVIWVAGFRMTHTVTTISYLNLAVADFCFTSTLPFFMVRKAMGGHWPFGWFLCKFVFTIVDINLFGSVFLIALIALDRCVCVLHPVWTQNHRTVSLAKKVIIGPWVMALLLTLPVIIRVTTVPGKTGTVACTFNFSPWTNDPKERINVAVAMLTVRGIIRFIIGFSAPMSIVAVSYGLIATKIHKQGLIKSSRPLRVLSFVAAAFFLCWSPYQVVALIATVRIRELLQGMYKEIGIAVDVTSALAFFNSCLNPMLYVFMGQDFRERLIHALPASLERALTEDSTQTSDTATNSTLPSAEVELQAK

Chain of Disintegrin and metalloproteinase domain-containing protein 17 (P78536 whole entry, the tested form may be a part): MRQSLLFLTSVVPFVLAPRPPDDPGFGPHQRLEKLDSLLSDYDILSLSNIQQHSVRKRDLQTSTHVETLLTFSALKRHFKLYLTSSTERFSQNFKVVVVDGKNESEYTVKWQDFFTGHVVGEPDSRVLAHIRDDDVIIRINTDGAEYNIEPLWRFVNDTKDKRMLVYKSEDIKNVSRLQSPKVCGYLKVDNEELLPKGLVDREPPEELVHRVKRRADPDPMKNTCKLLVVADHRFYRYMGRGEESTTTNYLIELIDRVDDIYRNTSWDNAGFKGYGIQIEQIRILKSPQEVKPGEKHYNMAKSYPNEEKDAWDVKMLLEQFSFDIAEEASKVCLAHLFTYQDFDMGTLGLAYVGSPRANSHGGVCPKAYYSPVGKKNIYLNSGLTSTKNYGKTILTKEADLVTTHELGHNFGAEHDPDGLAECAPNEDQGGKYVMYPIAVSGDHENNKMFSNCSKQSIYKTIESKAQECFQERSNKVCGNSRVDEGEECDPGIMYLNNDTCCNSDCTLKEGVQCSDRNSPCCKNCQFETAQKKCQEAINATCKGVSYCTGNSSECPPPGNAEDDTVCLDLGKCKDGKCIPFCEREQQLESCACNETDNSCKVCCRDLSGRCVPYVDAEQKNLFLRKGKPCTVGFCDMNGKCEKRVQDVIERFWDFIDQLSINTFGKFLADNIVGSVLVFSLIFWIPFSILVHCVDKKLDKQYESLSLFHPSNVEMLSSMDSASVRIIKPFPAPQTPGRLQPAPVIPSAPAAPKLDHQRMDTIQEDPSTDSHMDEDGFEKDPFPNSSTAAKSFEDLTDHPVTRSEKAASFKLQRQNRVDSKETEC
Chain of NAD-dependent protein deacylase sirtuin-5, mitochondrial (Q9NXA8 whole entry): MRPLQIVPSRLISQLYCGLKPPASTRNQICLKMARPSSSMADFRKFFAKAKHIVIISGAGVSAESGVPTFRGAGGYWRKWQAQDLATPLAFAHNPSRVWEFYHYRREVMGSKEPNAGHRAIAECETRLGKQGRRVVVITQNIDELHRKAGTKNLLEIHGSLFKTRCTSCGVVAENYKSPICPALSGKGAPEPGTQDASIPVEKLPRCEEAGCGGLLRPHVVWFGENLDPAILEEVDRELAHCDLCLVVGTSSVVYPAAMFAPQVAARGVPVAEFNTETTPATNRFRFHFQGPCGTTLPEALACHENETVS
Chain of 1-phosphatidylinositol 4,5-bisphosphate phosphodiesterase gamma-1 (P19174 whole entry): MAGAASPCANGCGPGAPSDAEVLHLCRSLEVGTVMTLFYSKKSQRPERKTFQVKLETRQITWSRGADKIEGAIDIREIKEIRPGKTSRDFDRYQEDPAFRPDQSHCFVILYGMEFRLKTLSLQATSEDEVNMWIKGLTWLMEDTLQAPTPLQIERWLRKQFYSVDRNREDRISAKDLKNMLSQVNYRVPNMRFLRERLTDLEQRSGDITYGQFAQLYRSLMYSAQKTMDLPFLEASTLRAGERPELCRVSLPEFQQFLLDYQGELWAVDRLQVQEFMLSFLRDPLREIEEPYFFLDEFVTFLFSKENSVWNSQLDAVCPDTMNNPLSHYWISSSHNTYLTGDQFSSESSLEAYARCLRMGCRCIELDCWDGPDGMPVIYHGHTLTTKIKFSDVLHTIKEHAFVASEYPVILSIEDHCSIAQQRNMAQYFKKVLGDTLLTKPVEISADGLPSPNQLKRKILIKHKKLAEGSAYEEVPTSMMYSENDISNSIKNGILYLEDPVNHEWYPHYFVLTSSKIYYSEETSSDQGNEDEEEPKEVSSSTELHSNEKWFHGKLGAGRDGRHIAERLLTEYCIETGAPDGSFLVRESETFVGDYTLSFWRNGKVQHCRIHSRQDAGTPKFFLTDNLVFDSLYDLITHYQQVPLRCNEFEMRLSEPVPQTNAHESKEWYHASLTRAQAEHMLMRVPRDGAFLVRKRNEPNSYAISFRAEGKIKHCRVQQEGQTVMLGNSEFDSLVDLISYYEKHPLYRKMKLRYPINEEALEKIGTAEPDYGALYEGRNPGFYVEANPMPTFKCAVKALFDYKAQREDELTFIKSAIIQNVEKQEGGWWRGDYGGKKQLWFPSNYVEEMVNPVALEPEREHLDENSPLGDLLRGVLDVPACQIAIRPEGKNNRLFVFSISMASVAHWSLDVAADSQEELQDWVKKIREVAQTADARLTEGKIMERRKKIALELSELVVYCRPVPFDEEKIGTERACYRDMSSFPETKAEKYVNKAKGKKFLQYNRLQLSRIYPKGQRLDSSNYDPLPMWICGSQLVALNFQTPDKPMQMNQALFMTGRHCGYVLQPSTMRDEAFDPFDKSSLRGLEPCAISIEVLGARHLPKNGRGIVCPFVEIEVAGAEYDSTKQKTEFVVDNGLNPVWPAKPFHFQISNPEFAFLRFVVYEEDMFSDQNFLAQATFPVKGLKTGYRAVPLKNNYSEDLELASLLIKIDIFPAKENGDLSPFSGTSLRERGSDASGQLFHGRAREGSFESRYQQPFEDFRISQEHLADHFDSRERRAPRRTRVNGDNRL
Chain of 1-phosphatidylinositol 4,5-bisphosphate phosphodiesterase beta-3 (Q01970 whole entry): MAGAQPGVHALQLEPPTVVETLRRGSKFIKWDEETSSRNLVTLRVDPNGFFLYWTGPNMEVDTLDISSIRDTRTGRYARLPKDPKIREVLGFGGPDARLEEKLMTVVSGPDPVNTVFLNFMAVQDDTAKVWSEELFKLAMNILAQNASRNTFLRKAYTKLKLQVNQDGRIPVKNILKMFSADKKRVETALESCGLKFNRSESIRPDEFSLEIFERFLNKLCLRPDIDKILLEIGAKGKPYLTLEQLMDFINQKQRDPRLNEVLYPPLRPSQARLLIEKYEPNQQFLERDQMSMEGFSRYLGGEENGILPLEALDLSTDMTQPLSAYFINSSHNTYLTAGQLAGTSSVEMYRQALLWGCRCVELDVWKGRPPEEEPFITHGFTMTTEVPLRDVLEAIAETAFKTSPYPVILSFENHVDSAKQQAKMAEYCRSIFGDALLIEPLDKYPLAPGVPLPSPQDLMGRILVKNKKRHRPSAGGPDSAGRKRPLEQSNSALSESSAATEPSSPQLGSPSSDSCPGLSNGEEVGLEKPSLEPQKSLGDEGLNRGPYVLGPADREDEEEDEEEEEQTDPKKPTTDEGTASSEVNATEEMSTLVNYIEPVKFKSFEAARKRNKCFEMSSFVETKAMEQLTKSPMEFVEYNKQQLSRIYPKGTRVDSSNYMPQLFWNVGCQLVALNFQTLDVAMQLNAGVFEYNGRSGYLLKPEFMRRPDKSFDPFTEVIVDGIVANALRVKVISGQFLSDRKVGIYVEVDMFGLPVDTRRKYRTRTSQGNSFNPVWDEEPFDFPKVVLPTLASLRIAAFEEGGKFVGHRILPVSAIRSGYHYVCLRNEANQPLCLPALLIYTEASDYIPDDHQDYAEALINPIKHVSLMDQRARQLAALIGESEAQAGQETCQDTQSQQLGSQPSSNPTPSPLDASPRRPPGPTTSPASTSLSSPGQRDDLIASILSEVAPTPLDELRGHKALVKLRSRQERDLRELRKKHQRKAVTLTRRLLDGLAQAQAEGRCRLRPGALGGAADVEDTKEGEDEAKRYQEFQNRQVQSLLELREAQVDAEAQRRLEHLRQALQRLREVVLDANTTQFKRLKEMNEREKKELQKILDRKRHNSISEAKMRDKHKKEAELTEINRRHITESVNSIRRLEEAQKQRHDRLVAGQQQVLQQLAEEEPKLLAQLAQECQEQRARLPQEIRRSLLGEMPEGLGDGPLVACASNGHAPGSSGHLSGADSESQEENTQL

CCCCN=C(S)NNC(=O)c1csc(CC)c1
IC50 [1]: > 122 µM (inactive)
IC50 [2]: > 122 µM (inactive)

N#Cc1ccsc1NC(=O)CSc1nncs1
EC50 [3]: > 67.5 µM (inactive)
EC50 [4]: > 67.5 µM (inactive)

C[C@@H]1CCCCO[C@H](CN(C)Cc2ccccc2)[C@H](C)CN([C@H](C)CO)C(=O)c2cc(NC(=O)CCC(F)(F)F)ccc2O1
AC50 [5]: > 30 µM (inactive)

Cc1cc(F)ccc1S(=O)(=O)Nc1cc(SCC(=O)O)c(O)c2ccccc12
CC50 [6]: 10.7 µM (active)

CC(=O)Nc1cc(NS(=O)(=O)c2c(C)cc(C)cc2C)c2ccccc2c1O
AC50 [7]: 32.3 µM (active)

Cc1ccc(S(=O)(=O)Nc2ccc(-c3csc(-c4ccccc4)n3)cc2)cc1
IC50 [8]: > 69.5 µM (inactive)
AC50 [9]: 3.5 µM (active)
IC50 [10]: > 69.5 µM (inactive)

COc1ccc(OC)c2sc(N(CCCN(C)C)C(=O)CCS(=O)(=O)c3ccccc3)nc12
AC50 [11]: 56.3 µM (active)
AC50 [12]: 7.2 µM (active)
AC50 [13]: 17.3 µM (active)
AC50 [14]: 14.5 µM (active)
AC50 [15]: 22.8 µM (active)
AC50 [16]: 12 µM (active)
AC50 [17]: 5.66 µM (active)
AC50 [18]: 25.5 µM (active)
AC50 [19]: 13.2 µM (active)
AC50 [20]: 40 µM (active)

c1ccc(-c2nnc(SCc3cccnc3)o2)cc1
IC90 [21]: 8 µM (active)
IC90 [22]: 8 µM (active)

CCOc1cc(C2C(C(=O)c3ccco3)=C(O)C(=O)N2CCc2ccccc2)ccc1O (stereo not drawn)
Ki [23]: > 66.7 µM (inactive)
